Legend:
[1] = test system: cells; assay: Cell images of cells co-cultured with the components (FITC-insulin transmission); type: cell-based; details: cells co-cultured with the component; stained with Cld 4, E-cadherin and DAPI; FIG. 3
[2] = Pharmacokinetic test of nano/micro bubbles (plasma insulin and blood glucose); type: in vivo; details: subcutaneous injection of insulin 5 IU/kg; 0 to 10 hours; FIG. 5b
Protocol: Pharmacokinetic Test of Nano/Micro Bubbles In the present example, groups comprising nano/micro bubbles of the present invention (containing 30 IU/kg of insulin), oral administration (30 IU/kg of insulin) and subcutaneous injection of insulin (5 IU/kg) are compared. The change rates in plasma insulin and blood glucose concentration from 0 to 10 hours after subjects taking insulin or injected with insulin were recorded respectively, and the results are illustrated in FIGS. 5a and 5b.

| Compound | transmission of FITC-insulin (paracellular / transcellular pathway) [1] | change rate of the blood glucose [2] |
| --- | --- | --- |
| CCCCCCCCCCCCOS(=O)(=O)[O-].[Na+] [SDS, sodium dodecyl sulfate] | can promote transmission of FITC-insulin via both of paracellular pathway and transcellular pathway | – |
| O=C(O)CN(CCN1CC(=O)OC(=O)C1)CCN1CC(=O)OC(=O)C1 [DTPA dianhydride, diethylenetriaminepentaacetic dianhydride] | can promote transmission of FITC-insulin via paracellular pathway | – |
| insulin | – | rapidly declined and rose again |

— US9603793B2, “Nano / micro bubbles for drug delivery” (National Tsing Hua University, priority 2014, dated 2017)
